# Data reported in US11535611B2, “Pyrazolo[3,4-B]pyridines and imidazo[1,5-B]pyridazines as PDE1 inhibitors” (H. Lundbeck A/S, priority 2017, dated 2022).
# Key:
# Assay type in all cases: biochemical
# [1] = biological target: PDE1B (Homo sapiens (Human), UniProt Q01064); assay: PDE1 inhibition assay, PDE1B; details: 15 nM tritium labelled cAMP, 1 hr at room temperature, SPA beads; read-out: PDE1 B, IC50
# Protocol: (§1) PDE1A, PDE1B and PDE1C assays were performed as follows: the assays were performed in 60 μL samples containing a fixed amount of the PDE1 enzyme (sufficient to convert 20-25% of the cyclic nucleotide substrate), a buffer (50 mM HEPES (4-(2-hydroxyethyl)-1-piperazineethanesulfonic acid) pH 7.6; 10 mM MgCl2; 0.02% Tween20), 0.1 mg/ml BSA (bovine serum albumin), 15 nM tritium labelled cAMP and varying amounts of inhibitors. Reactions were initiated by addition of the cyclic nucleotide substrate, and reactions were allowed to proceed for 1 hr at room temperature before being terminated through mixing with 20 μL (0.2 mg) yttrium silicate SPA beads (PerkinElmer). The beads were allowed to settle for 1 hour in the dark before the plates were counted in a Wallac 1450 Microbeta counter. The measured signals were converted to activity relative to an uninhibited control (100%) and IC50 values were calculated using XIFit (model 205, IDBS).
# [2] = biological target: PDE1C (Homo sapiens (Human), UniProt Q14123); assay: PDE1 inhibition assay, PDE1C; details: for inhibition at 1 µM: @ 1 μM compound, read-out: PDE1 C, % inhibition @ 1 μM; for IC50: 15 nM tritium labelled cAMP, 1 hr at room temperature, SPA beads, read-out: PDE1 C, IC50
# Chain of PDE1C (Q14123 whole entry): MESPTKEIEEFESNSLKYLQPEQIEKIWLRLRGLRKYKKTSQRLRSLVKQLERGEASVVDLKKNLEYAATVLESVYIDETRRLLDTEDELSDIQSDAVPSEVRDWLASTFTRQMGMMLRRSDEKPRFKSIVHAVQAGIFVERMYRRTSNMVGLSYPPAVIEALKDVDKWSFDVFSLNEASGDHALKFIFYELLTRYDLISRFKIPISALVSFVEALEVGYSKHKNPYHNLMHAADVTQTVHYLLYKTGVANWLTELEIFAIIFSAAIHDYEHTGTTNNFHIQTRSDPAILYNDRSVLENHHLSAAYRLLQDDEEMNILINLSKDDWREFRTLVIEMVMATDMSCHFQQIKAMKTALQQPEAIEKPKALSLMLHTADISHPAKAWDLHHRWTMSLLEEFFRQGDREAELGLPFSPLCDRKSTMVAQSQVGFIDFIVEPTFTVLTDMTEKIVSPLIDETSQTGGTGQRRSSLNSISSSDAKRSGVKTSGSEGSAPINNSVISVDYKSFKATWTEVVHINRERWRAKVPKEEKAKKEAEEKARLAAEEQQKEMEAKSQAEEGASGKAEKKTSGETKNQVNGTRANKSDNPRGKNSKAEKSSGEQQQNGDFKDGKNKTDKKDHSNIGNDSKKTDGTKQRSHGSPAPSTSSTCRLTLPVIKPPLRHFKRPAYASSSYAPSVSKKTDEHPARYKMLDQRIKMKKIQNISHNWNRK
# Protocol: as §1
# [3] = biological target: PDE1A (Homo sapiens (Human), UniProt P54750); assay: PDE1 inhibition assay, PDE1A; details: for inhibition at 1 µM: @ 1 μM compound; for IC50: 15 nM tritium labelled cAMP, 1 hr at room temperature, SPA beads
# Chain of PDE1A (P54750 whole entry): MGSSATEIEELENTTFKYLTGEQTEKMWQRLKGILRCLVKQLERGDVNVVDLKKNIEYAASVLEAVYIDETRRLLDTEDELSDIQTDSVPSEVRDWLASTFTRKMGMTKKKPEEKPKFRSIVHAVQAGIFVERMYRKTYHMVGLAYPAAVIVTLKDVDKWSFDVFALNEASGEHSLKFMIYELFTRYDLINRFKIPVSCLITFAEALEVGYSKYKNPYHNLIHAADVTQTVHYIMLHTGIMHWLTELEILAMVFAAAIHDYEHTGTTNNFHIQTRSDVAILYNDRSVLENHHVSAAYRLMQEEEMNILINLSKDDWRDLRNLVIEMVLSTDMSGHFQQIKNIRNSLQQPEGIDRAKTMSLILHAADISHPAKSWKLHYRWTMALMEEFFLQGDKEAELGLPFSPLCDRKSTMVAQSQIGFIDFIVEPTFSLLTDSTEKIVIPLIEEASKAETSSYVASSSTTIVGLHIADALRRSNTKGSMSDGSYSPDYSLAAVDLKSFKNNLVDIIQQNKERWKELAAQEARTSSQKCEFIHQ
# Protocol: as §1
# Chain of PDE1B (Q01064 whole entry): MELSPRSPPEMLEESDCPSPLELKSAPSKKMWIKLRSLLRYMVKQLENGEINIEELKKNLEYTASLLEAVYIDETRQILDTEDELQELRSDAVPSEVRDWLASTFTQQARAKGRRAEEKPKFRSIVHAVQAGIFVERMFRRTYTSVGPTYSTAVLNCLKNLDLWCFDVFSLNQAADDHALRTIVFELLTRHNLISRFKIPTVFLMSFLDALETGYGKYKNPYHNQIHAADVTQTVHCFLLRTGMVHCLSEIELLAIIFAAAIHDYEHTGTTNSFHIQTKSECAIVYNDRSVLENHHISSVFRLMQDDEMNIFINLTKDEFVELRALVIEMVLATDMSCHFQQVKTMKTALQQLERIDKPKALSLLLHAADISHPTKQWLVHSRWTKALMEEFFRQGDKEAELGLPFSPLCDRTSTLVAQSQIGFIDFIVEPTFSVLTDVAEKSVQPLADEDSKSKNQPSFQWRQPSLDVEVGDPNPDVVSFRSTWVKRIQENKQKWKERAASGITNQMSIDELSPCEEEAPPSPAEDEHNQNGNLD
Compound,IC50 [1],inhibition at 1 µM [2],inhibition at 1 µM [3],IC50 [2],IC50 [3]
"CCOc1ncccc1-c1ccn2c(C3CCOC3)nc(C)c2n1 (racemic) [Example 81, (±)-2-(2-ethoxy-3-pyridyl)-8-methyl-6-tetrahydrofuran-3-yl-imidazo[1,5-a]pyrimidine]",145 nM,,,1630 nM,1130 nM
"CCOc1ncccc1-c1cc(N[C@@H]2COC[C@H]2OC)c2c(cnn2C(C)C)n1 (relative stereo) [Example 11, 5-(2-ethoxy-3-pyridyl)-1-isopropyl-N-[trans-4-methoxytetrahydrofuran-3-yl]pyrazolo[4,3-b]pyridin-7-amine]",82 nM,,,1480 nM,575 nM
"CCOc1ncccc1-c1cc(N[C@@H]2CCOC2)c2c(cnn2CC)n1 (single isomer, unassigned) [Example 20, 5-(2-ethoxy-3-pyridyl)-1-ethyl-N-[tetrahydrofuran-3-yl]pyrazolo[4,3-b]pyridin-7-amine]",179 nM,,,957 nM,467 nM
"CCOc1ncccc1-c1cc(N[C@H]2CCOC2)c2c(cnn2C(C)C)n1 (single isomer, unassigned) [Example 21, 5-(2-ethoxy-3-pyridyl)-1-isopropyl-N-[tetrahydrofuran-3-yl]pyrazolo[4,3-b]pyridin-7-amine]",48 nM,,,,
"CCCn1ncc2nc(-c3cccnc3OCC)cc(N[C@@H]3CCOC3)c21 (single isomer, unassigned) [Example 23, 5-(2-ethoxy-3-pyridyl)-1-propyl-N-[tetrahydrofuran-3-yl]pyrazolo[4,3-b]pyridin-7-amine]",171 nM,,,2540 nM,481 nM
"CCCn1ncc2nc(-c3cccnc3OCC)cc(N[C@@H]3CCOC3)c21 (single isomer, unassigned) [Example 24, 5-(2-ethoxy-3-pyridyl)-1-propyl-N-[tetrahydrofuran-3-yl]pyrazolo[4,3-b]pyridin-7-amine]",177 nM,,,703 nM,327 nM
"CCOc1ncccc1-c1ccn2c([C@H](C)CC)nc(C)c2n1 (single isomer, unassigned) [Example 83, 2-(2-ethoxy-3-pyridyl)-8-methyl-6-[1-methylpropyl]imidazo[1,5-a]pyrimidine]",6 nM,,,77 nM,51 nM
"CCOc1ncccc1-c1cc(NC2CCOC2)c2c(cnn2C2CCOC2)n1 (centres unmarked) [Example 2, 5-(2-ethoxy-3-pyridyl)-N,1-di(tetrahydrofuran-3-yl)pyrazolo[4,3-b]pyridin-7-amine]",445 nM,,13%,403 nM,
"CCOc1ncccc1-c1cc(NC[C@H]2CCCO2)c2c(cnn2C(C)C)n1 [Example 7, 5-(2-ethoxy-3-pyridyl)-1-isopropyl-N-[[(2R)-tetrahydrofuran-2-yl]methyl]pyrazolo[4,3-b]pyridin-7-amine]",83 nM,,,1710 nM,449 nM
"CCOc1ncccc1-c1cc(N[C@H]2CCCOC2)c2c(cnn2C(C)C)n1 [Example 9, 5-(2-ethoxy-3-pyridyl)-1-isopropyl-N-[(3S)-tetrahydropyran-3-yl]pyrazolo[4,3-b]pyridin-7-amine]",295 nM,,,2700 nM,687 nM

# Now from value to compound:
IC50 [1],inhibition at 1 µM [2],inhibition at 1 µM [3],IC50 [2],IC50 [3],Compound
550 nM,29%,27%,,,"CCOc1ncccc1-c1cc(N2CCCC2)c2c(cnn2C2CCOC2)n1 (racemic) [Example 3, (±)-5-(2-ethoxy-3-pyridyl)-7-pyrrolidin-1-yl-1-tetrahydrofuran-3-yl-pyrazolo[4,3-b]pyridine]"
447 nM,20%,47%,,,"CCOc1ncccc1-c1cc(NC2CCOC2)c2c(cnn2C2COC2)n1 (racemic) [Example 5, (±)-5-(2-ethoxy-3-pyridyl)-1-(oxetan-3-yl)-N-tetrahydrofuran-3-yl-pyrazolo[4,3-b]pyridin-7-amine]"
11 nM,,,106 nM,70 nM,"CCOc1ncccc1-c1cc(NCC2CCC(=O)N2C)c2c(n1)c(C)nn2C(C)C (racemic) [Example 67, (±)-5-[[[5-(2-ethoxy-3-pyridyl)-1-isopropyl-3-methyl-pyrazolo[4,3-b]pyridin-7-yl]amino]methyl]-1-methyl-pyrrolidin-2-one]"
9 nM,,,112 nM,61 nM,"CCOc1ncccc1-c1ccn2c(C(C)CC)nc(C)c2n1 (racemic) [Example 76, (±)-2-(2-ethoxy-3-pyridyl)-8-methyl-6-sec-butyl-imidazo[1,5-a]pyrimidine]"
376 nM,26%,42%,,,"CCOc1ncccc1-c1cc(N2CCC(C)(F)C2)c2c(cnn2C)n1 (racemic) [Example 87, (±)-5-(2-ethoxy-3-pyridyl)-7-(3-fluoro-3-methyl-pyrrolidin-1-yl)-1-methyl-pyrazolo[4,3-b]pyridine]"
86 nM,,,3060 nM,326 nM,"CCOc1ncccc1-c1cc(N[C@@H]2CCOC2)c2c(cnn2CC)n1 (single isomer, unassigned) [Example 19, 5-(2-ethoxy-3-pyridyl)-1-ethyl-N-[tetrahydrofuran-3-yl]pyrazolo[4,3-b]pyridin-7-amine]"
32 nM,,,,,"CCOc1ncccc1-c1cc(N[C@H]2CCOC2)c2c(cnn2C(C)C)n1 (single isomer, unassigned) [Example 22, 5-(2-ethoxy-3-pyridyl)-1-isopropyl-N-[tetrahydrofuran-3-yl]pyrazolo[4,3-b]pyridin-7-amine]"
33 nM,,,323 nM,159 nM,"CCOc1ncccc1-c1ccn2c([C@H](C)CC)nc(C)c2n1 (single isomer, unassigned) [Example 84, 2-(2-ethoxy-3-pyridyl)-8-methyl-6-[1-methylpropyl]imidazo[1,5-a]pyrimidine]"
916 nM,,,1810 nM,3000 nM,"CCOc1ncncc1-c1cc(NC2CCOC2)c2c(cnn2C(C)C)n1 (stereo in doubt) [Example 50, 5-(4-ethoxypyrimidin-5-yl)-1-isopropyl-N-[(3R)-tetrahydrofuran-3-yl]pyrazolo[4,3-b]pyridin-7-amine]"
170 nM,49%,70%,,,"CCOc1ncccc1-c1cc(N2CCCC2)c2c(n1)c(C)nn2C [Example 1, 5-(2-ethoxy-3-pyridyl)-1,3-dimethyl-7-pyrrolidin-1-yl-pyrazolo[4,3-b]pyridine]"
95 nM,56%,,,641 nM,"CCOc1ncccc1-c1cc(N2CCCC2)c2c(cnn2C2COC2)n1 [Example 4, 5-(2-ethoxy-3-pyridyl)-1-(oxetan-3-yl)-7-pyrrolidin-1-yl-pyrazolo[4,3-b]pyridine]"
111 nM,,,1390 nM,653 nM,"CCOc1ncccc1-c1cc(NC[C@@H]2CCCO2)c2c(cnn2C(C)C)n1 [Example 6, 5-(2-ethoxy-3-pyridyl)-1-isopropyl-N-[[(2S)-tetrahydrofuran-2-yl]methyl]pyrazolo[4,3-b]pyridin-7-amine]"
423 nM,,,2870 nM,2160 nM,"CCOc1ncccc1-c1cc(N[C@@H]2CCCOC2)c2c(cnn2C(C)C)n1 [Example 8, 5-(2-ethoxy-3-pyridyl)-1-isopropyl-N-[(3R)-tetrahydropyran-3-yl]pyrazolo[4,3-b]pyridin-7-amine]"
